Data as given in ChEMBL document CHEMBL1201862, “PubChem BioAssay data set” (2004).
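How tested: cells in 96-well plates exposed to compound for 48 hours at five concentrations. GI50 is the concentration that inhibits growth by half.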 Activity calls are given as the source filed them. Cut-off read from the data, not from the text of the source: active = GI50 up to about 1.1 µM and inactive = higher.

Legend:
Experiment in all cases: NCI anticancer screen, dose series, 48 h
BT-549 = test system: BT-549
SN12C = test system: SN12C
CCRF-CEM = test system: CCRF-CEM
EKVX = test system: EKVX
IGROV-1 = test system: IGROV-1
OVCAR-8 = test system: OVCAR-8
SR = test system: SR
PC-3 = test system: PC-3
SK-MEL-28 = test system: SK-MEL-28
NCI/ADR-RES = test system: NCI/ADR-RES
HL-60 = test system: HL-60
SNB-75 = test system: SNB-75
K562 = test system: K562
OVCAR-3 = test system: OVCAR-3
HCC 2998 = test system: HCC 2998
A549 = test system: A549
DLD-1 = test system: DLD-1
M19-MEL = test system: M19-MEL
DMS-114 = test system: DMS-114

Structure (SMILES)	GI50 (BT-549)	GI50 (SN12C)	GI50 (CCRF-CEM)	GI50 (EKVX)	GI50 (IGROV-1)	GI50 (OVCAR-8)	GI50 (SR)	GI50 (PC-3)	GI50 (SK-MEL-28)	GI50 (NCI/ADR-RES)	GI50 (HL-60)	GI50 (SNB-75)	GI50 (K562)	GI50 (OVCAR-3)	GI50 (HCC 2998)	GI50 (A549)	GI50 (DLD-1)	GI50 (M19-MEL)	GI50 (DMS-114)
COc1ccc2c(O)c(S(=O)(=O)c3ccc(C)cc3)c(=O)oc2c1OC	> 100 µM (inactive)	> 100 µM (inactive)	> 100 µM (inactive)	> 100 µM (inactive)	> 100 µM (inactive)	> 100 µM (inactive)	> 100 µM (inactive)	> 100 µM (inactive)	> 100 µM (inactive)	> 100 µM (inactive)	> 100 µM (inactive)	> 100 µM (inactive)	> 100 µM (inactive)	> 100 µM (inactive)	> 100 µM (inactive)	> 100 µM (inactive)			
O=C1OC(O)C(Oc2ccc(Cl)cc2)=C1Cl (centres undefined)		> 100 µM (inactive)	> 100 µM (inactive)	> 100 µM (inactive)	> 100 µM (inactive)	> 100 µM (inactive)			> 100 µM (inactive)		> 100 µM (inactive)	> 100 µM (inactive)	> 100 µM (inactive)	> 100 µM (inactive)	> 100 µM (inactive)	> 100 µM (inactive)	> 100 µM (inactive)	> 100 µM (inactive)	39.1 µM (inactive)
CS(=O)(=O)CCC1CCC(=O)O1 (centres undefined)	53 µM (inactive)	68.1 µM (inactive)	> 10 µM (inactive)	> 100 µM (inactive)	> 100 µM (inactive)	> 100 µM (inactive)	85.1 µM (inactive)	> 100 µM (inactive)	> 100 µM (inactive)	> 100 µM (inactive)	> 100 µM (inactive)	97.9 µM (inactive)	> 100 µM (inactive)	> 100 µM (inactive)	> 100 µM (inactive)	43.6 µM (inactive)			
N/C1=C/C(=O)NC(=O)c2c(c3ccccc3oc2=O)C1	> 100 µM (inactive)	> 100 µM (inactive)	> 100 µM (inactive)	46.7 µM (inactive)	> 100 µM (inactive)	> 100 µM (inactive)	> 100 µM (inactive)	> 100 µM (inactive)	> 100 µM (inactive)	> 100 µM (inactive)	> 100 µM (inactive)	> 100 µM (inactive)	> 100 µM (inactive)	> 100 µM (inactive)	> 100 µM (inactive)	> 100 µM (inactive)			
C=C(C)CN(CC#N)CC(=C)C	> 100 µM (inactive)	> 100 µM (inactive)	> 100 µM (inactive)	> 100 µM (inactive)	> 100 µM (inactive)	> 100 µM (inactive)	> 100 µM (inactive)	> 100 µM (inactive)	> 100 µM (inactive)	> 100 µM (inactive)	> 100 µM (inactive)	> 100 µM (inactive)	> 100 µM (inactive)	> 100 µM (inactive)	> 100 µM (inactive)	> 100 µM (inactive)			
O=C1/C(=C/c2ccccc2)CN(C(=O)OCC(Cl)(Cl)Cl)C/C1=C\c1ccccc1		1.84 µM (inactive)	1.71 µM (inactive)	> 10 µM (inactive)	3.54 µM (inactive)	1.76 µM (inactive)	2.07 µM (inactive)		1.66 µM (inactive)		0.897 µM (active)	3.86 µM (inactive)	1.32 µM (inactive)	4.19 µM (inactive)		5.02 µM (inactive)	1.91 µM (inactive)	1.39 µM (inactive)	1.95 µM (inactive)
NC(=O)CN1CC(C2=C(O)CN(CC(N)=O)C2=O)=CC1=O	> 100 µM (inactive)	> 100 µM (inactive)	> 100 µM (inactive)	> 100 µM (inactive)	> 100 µM (inactive)	> 100 µM (inactive)	> 100 µM (inactive)	> 100 µM (inactive)	> 100 µM (inactive)	> 100 µM (inactive)	> 100 µM (inactive)	> 100 µM (inactive)	> 100 µM (inactive)	> 100 µM (inactive)	> 100 µM (inactive)	> 100 µM (inactive)			
COC(=O)/C=C(/C(=O)OC)c1c(C)cc2c(C)cc(C)cc(C)c1-2	15 µM (inactive)	14.9 µM (inactive)	9.18 µM (inactive)	32.1 µM (inactive)	23.3 µM (inactive)	25.4 µM (inactive)	4.19 µM (inactive)	19 µM (inactive)	24.3 µM (inactive)	9.33 µM (inactive)	4.13 µM (inactive)	16.7 µM (inactive)	4.45 µM (inactive)	10.2 µM (inactive)	16.4 µM (inactive)	14.9 µM (inactive)			
O=CC(NC(=O)N(CCCl)N=O)C(O)C(O)C(O)CO (centres undefined)	499 µM (inactive)	902 µM (inactive)	348 µM (inactive)	> 1250 µM (inactive)	1000 µM (inactive)	1160 µM (inactive)	78.7 µM (inactive)	> 1250 µM (inactive)	817 µM (inactive)	953 µM (inactive)	287 µM (inactive)	262 µM (inactive)	575 µM (inactive)	> 1250 µM (inactive)	> 1030 µM (inactive)	753 µM (inactive)	> 1250 µM (inactive)		1040 µM (inactive)
